Reference: ChEMBL document CHEMBL5046228 (Eur J Med Chem, 2022)

Experiments:
NCI-H1299 = assay: Induction of apoptosis in human NCI-H1299 cells assessed as increase in viable cells at 0.5 uM after 36 hrs by annexin-V-FITC/PI staining based flow cytometric analysis (reference value: 94.1%); format: functional
[1] = target: Epidermal growth factor receptor (Homo sapiens, UniProt P00533, C797S/T790M); assay: Inhibition of EGFR T790M/C797S double mutant (unknown origin) using flurogenic substrate in presence of ATP by HTRF assay
Chain of Epidermal growth factor receptor (P00533 25-1210 T790M/C797S limits assumed): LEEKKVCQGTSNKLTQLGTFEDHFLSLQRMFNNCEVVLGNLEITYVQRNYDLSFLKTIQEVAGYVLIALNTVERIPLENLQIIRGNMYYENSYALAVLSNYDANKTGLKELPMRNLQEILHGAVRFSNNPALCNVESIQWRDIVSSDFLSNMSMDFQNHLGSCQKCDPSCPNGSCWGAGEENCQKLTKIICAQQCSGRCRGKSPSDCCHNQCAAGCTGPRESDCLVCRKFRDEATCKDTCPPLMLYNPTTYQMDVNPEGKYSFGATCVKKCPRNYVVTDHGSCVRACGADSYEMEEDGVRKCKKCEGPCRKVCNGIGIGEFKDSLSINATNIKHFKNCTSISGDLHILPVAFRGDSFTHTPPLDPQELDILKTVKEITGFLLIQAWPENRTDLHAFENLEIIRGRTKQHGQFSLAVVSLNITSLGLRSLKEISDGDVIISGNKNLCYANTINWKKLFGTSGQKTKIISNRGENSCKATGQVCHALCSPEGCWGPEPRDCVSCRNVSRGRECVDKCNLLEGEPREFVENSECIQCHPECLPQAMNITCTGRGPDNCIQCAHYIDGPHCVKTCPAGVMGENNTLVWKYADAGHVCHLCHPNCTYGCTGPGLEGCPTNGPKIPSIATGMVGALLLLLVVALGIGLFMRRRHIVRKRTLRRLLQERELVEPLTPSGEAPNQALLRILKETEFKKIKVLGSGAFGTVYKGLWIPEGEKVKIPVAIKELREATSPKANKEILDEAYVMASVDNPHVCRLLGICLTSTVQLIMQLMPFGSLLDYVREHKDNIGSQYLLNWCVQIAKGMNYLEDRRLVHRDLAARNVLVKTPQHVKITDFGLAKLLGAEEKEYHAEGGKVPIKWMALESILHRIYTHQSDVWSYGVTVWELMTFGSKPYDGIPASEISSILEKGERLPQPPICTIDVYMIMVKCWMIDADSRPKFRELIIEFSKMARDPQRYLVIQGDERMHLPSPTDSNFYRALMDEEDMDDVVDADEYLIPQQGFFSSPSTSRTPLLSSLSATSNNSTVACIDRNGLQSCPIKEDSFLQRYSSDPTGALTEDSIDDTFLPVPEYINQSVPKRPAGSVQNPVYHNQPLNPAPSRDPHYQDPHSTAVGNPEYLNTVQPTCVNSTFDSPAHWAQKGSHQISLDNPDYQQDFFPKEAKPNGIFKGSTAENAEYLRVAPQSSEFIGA

`C#CCN(C)CCN(C)c1cc(OC)c(Nc2nccc(Nc3cn(C)c4ccccc34)n2)cc1NC(=O)C=C` was tested, and the Activity (NCI-H1299) was 92.6% and the IC50 [1] was 4.01 nM.
